Test results from ChEMBL document CHEMBL3997780, “Facile synthesis and antiproliferative activity of 7H-benzo[7,8]chromeno[2,3-d]pyrimidin-8-amines” (Eur J Med Chem, 2017).
The source made the active and inactive calls. The rule behind the calls is not given here.

Columns and labels:
HeLa = experiment: Cytotoxicity against human HeLa cells assessed as decrease in cell viability by MTT assay; type: functional, cell-based
A549 [1] = experiment: Cytotoxicity against human A549 cells assessed as decrease in cell viability by MTT assay; type: functional, cell-based
MOLT-4 [2] = experiment: Cytotoxicity against human MOLT4 cells assessed as decrease in cell viability by MTT assay; type: functional, cell-based
MOLT-4 [3] = experiment: Induction of apoptosis in human MOLT4 cells assessed as late apoptotic cells at IC50 after 24 hrs by annexin V-FITC/propidium iodide staining-based flow cytometric method (reference value: 0.02%); type: functional
MOLT-4 [4] = experiment: Induction of apoptosis in human MOLT4 cells assessed as change in cell morphology at IC50 after 24 hrs by acridine orange/ethidium bromide staining-based fluorescence microscopic method; type: functional
MOLT-4 [5] = experiment: Induction of apoptosis in human MOLT4 cells assessed as necrotic cells at IC50 after 24 hrs by annexin V-FITC/propidium iodide staining-based flow cytometric method (reference value: 0.03%); type: functional
MOLT-4 [6] = experiment: Induction of apoptosis in human MOLT4 cells assessed as early apoptotic cells at IC50 after 24 hrs by annexin V-FITC/propidium iodide staining-based flow cytometric method (reference value: 2.18%); type: functional
A549 [7] = experiment: Induction of apoptosis in human A549 cells assessed as change in cell morphology at IC50 after 24 hrs by acridine orange/ethidium bromide staining-based fluorescence microscopic method; type: functional
MOLT-4 [8] = experiment: Induction of apoptosis in human MOLT4 cells assessed as viable cells at IC50 after 24 hrs by annexin V-FITC/propidium iodide staining-based flow cytometric method (reference value: 97.78%); type: functional
A549 [9] = experiment: Induction of apoptosis in human A549 cells assessed as necrotic cells at IC50 after 24 hrs by annexin V-FITC/propidium iodide staining-based flow cytometric method relative to control; type: functional
A549 [10] = experiment: Induction of apoptosis in human A549 cells assessed as early apoptotic cells at IC50 after 24 hrs by annexin V-FITC/propidium iodide staining-based flow cytometric method (reference value: 0.93%); type: functional
A549 [11] = experiment: Induction of apoptosis in human A549 cells assessed as late apoptotic cells at IC50 after 24 hrs by annexin V-FITC/propidium iodide staining-based flow cytometric method (reference value: 0.06%); type: functional
A549 [12] = experiment: Induction of apoptosis in human A549 cells assessed as viable cells at IC50 after 24 hrs by annexin V-FITC/propidium iodide staining-based flow cytometric method (reference value: 99.01%); type: functional

| Structure (SMILES) | IC50 (HeLa) | IC50 (A549 [1]) | IC50 (MOLT-4 [2]) | also measured |
| --- | --- | --- | --- | --- |
| Brc1ccc(Nc2ncnc3c2C(c2ccccc2)c2ccc4ccccc4c2O3)cc1 (configuration not stated) | 31.6 µM | > 100 µM | 29.4 µM |  |
| COc1ccc(CCNc2ncnc3c2C(c2ccccc2)c2ccc4ccccc4c2O3)c(OC)c1 (configuration not stated) | 43.5 µM | 18.9 µM | 14.5 µM |  |
| Cc1ccc(Nc2ncnc3c2C(c2ccccc2)c2ccc4ccccc4c2O3)c(C)c1 (configuration not stated) | 14.6 µM | 11.2 µM | 8.9 µM |  |
| c1ccc(CNc2ncnc3c2C(c2ccccc2)c2ccc4ccccc4c2O3)cc1 (configuration not stated) | 5.9 µM | 10.9 µM | 12.7 µM |  |
| COc1ccc(OC)c(C2c3ccc4ccccc4c3Oc3ncnc(Nc4ccc(Cl)cc4)c32)c1 (configuration not stated) | 15.9 µM | 14.8 µM | 7.4 µM |  |
| COc1ccc(Nc2ncnc3c2C(c2cc(OC)ccc2OC)c2ccc4ccccc4c2O3)cc1 (configuration not stated) | 10.6 µM | 7.2 µM | 6.9 µM |  |
| COc1ccc(Nc2ncnc3c2C(c2cc(OC)c(OC)c(OC)c2)c2ccc4ccccc4c2O3)cc1 (configuration not stated) | > 100 µM | 46.5 µM | 33.5 µM |  |
| COc1ccc(OC)c(C2c3ccc4ccccc4c3Oc3ncnc(Nc4ccc(Br)cc4)c32)c1 (configuration not stated) | 16.7 µM | 26.8 µM | 20.4 µM |  |
| COc1ccc(OC)c(C2c3ccc4ccccc4c3Oc3ncnc(Nc4ccc(F)cc4)c32)c1 (configuration not stated) | 10.5 µM | 8.4 µM | 6.8 µM |  |
| COc1ccc(OC)c(C2c3ccc4ccccc4c3Oc3ncnc(Nc4ccccc4F)c32)c1 (configuration not stated) | 6.9 µM | 6.3 µM | 5.2 µM | Activity (MOLT-4 [3]): 43.61%; Activity (MOLT-4 [4]): Active; Activity (MOLT-4 [5]): 1.18%; Activity (MOLT-4 [6]): 47.03%; Activity (A549 [7]): Active; Activity (MOLT-4 [8]): 8.18% |
| c1ccc(CCNc2ncnc3c2C(c2ccccc2)c2ccc4ccccc4c2O3)cc1 (configuration not stated) | 50.2 µM | 68.5 µM | 16.9 µM |  |
| Clc1ccccc1CNc1ncnc2c1C(c1ccccc1)c1ccc3ccccc3c1O2 (configuration not stated) | 15.4 µM | 9.6 µM | 11.7 µM |  |
| COc1cc(C2c3ccc4ccccc4c3Oc3ncnc(Nc4ccccc4)c32)cc(OC)c1OC (configuration not stated) | 20.7 µM | 18.6 µM | 9.8 µM |  |
| c1ccc(Nc2ncnc3c2C(c2ccccc2)c2ccc4ccccc4c2O3)cc1 (configuration not stated) | 6.4 µM | 12.5 µM | 6.6 µM |  |
| COc1cc(C2c3ccc4ccccc4c3Oc3ncnc(NCc4ccccc4Cl)c32)cc(OC)c1OC (configuration not stated) | 33.2 µM | 22.2 µM | 14.5 µM |  |
| CCc1ccc(Nc2ncnc3c2C(c2ccccc2)c2ccc4ccccc4c2O3)cc1 (configuration not stated) | 14.5 µM | 17.4 µM | 17.6 µM |  |
| COc1cc(C2c3ccc4ccccc4c3Oc3ncnc(NCc4ccccc4)c32)cc(OC)c1OC (configuration not stated) | 44.6 µM | 26.5 µM | 10.4 µM |  |
| Clc1ccc(Nc2ncnc3c2C(c2ccccc2)c2ccc4ccccc4c2O3)cc1 (configuration not stated) | 19.9 µM | 13.7 µM | 16.4 µM |  |
| COc1ccc(Nc2ncnc3c2C(c2ccccc2)c2ccc4ccccc4c2O3)c(OC)c1 (configuration not stated) | 15.9 µM | 10.9 µM | 6.5 µM |  |
| Fc1ccccc1Nc1ncnc2c1C(c1ccccc1)c1ccc3ccccc3c1O2 (configuration not stated) | 10.3 µM | 5.4 µM | 12.8 µM | Activity (MOLT-4 [4]): Active; Activity (A549 [9]): 0.29%; Activity (A549 [10]): 34.92%; Activity (A549 [11]): 2.72%; Activity (A549 [7]): Active; Activity (A549 [12]): 62.07% |
